Data on 7 compounds can be found in ChEMBL document CHEMBL1201862, “PubChem BioAssay data set” (2004).

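Values below derive from 48-hour exposures of cells grown in 96-well plates, with endpoints linearly interpolated between the two concentrations bracketing the appropriate inhibition level. At the GI50, growth is halved.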 Calls of active or inactive are those of the source. Cut-off read from the data, not from the text of the source: active = GI50 up to about 1.1 µM and inactive = higher.

By GI50 is commonly meant the concentration that inhibits growth by half.

Holding throughout (assay): DTP human tumour cell line panel, 48 h
Assay [1] relates to HT-29.
Assay [2] concerns SF-539.
For assay [3], the system named is MOLT-4.
In assay [4] the test system is RPMI-8226.
In assay [5] the test system is SK-MEL-5.
Assay [6] relates to A549.
Assay [7] has as its system SW-620.
In assay [8] the test system is LOX IMVI.
Assay [9] deals with HOP-62.
Assay [10] has as its system SF-268.
Assay [11] concerns K562.
Assay [12] has as its system MDA-MB-231.
Assay [13] deals with MDA-MB-435.
For assay [14], the system named is SK-MEL-28.
The test system of assay [15] is UACC-257.
Assay [16] relates to SR.
The subject of assay [17] is A498.
The subject of assay [18] is T47D.
Assay [19] deals with RXF 393.
The test system of assay [20] is MCF7.

`O=[N+]([O-])c1cc(Cl)c(Cl)cc1[N+](=O)[O-]`: the GI50 in assay [1] is 4.16 µM (inactive); in assay [2], 2.13 µM (inactive); in [3], 0.212 µM (active); in [4], 4.17 µM (inactive); in assay [5], 14.6 µM (inactive); in [6], 2.29 µM (inactive). Besides, the GI50 was 2.91 µM (inactive) in assay [7]; 2.37 µM (inactive) in [8]; 2.74 µM (inactive) in assay [9]; 1.81 µM (inactive) in assay [10]; 2.43 µM (inactive) in assay [11]; 2.25 µM (inactive) in [12]. Besides, the GI50 in [13] is 4.07 µM (inactive); in assay [14] it was 2.64 µM (inactive); in [15] it was 2.15 µM (inactive); in [16] it was 1.89 µM (inactive); in assay [17], 18.5 µM (inactive); in assay [18], 3.24 µM (inactive). For the same compound, the figures for the GI50 in assay [19] and in assay [20] were 1.63 µM (inactive) and 2.06 µM (inactive), respectively.
Turning to `Cn1c2ccccc2n2c3ccccc3c(=O)c(C#N)c12`, the GI50 in assay [1] is 4.53 µM (inactive); in assay [2], 13 µM (inactive); in [3], 2.96 µM (inactive); in assay [4], 3.44 µM (inactive); in assay [5], 2.27 µM (inactive); in [6], 4.94 µM (inactive). The GI50 in [7] is 4.62 µM (inactive); in assay [8], 4.38 µM (inactive); in [9], 19.2 µM (inactive); in assay [10], 10.4 µM (inactive); in [11], 9.79 µM (inactive); in [12], 13.9 µM (inactive). Besides, the GI50 is 71.8 µM (inactive) in [13]; > 83.4 µM (inactive) in assay [14]; 55.6 µM (inactive) in [15]; 2.84 µM (inactive) in assay [16]; 18.3 µM (inactive) in assay [17]; 17.6 µM (inactive) in assay [18]. In addition, the figures for the GI50 in assay [19] and in assay [20] were 40.7 µM (inactive) and 10.1 µM (inactive), respectively.
`Cc1n[nH]c(=O)n1-c1cccnc1`: the GI50 in assay [1], in assay [2], in assay [3], in assay [4], in [5] and in assay [6] was > 100 µM (inactive) in each case. The GI50 in assay [7], in assay [8], in assay [9], in assay [10], in assay [11] and in [12] was > 100 µM (inactive) in each case. Also, the GI50 in assay [13], in [14], in assay [15], in assay [16], in assay [17] and in assay [18] was > 100 µM (inactive) throughout. In addition, the GI50 in assay [19] and in assay [20] was > 100 µM (inactive) in each case.
On to `COC(=O)C(/C(=N/N)C(=O)Nc1cccc(O)c1)c1nc2ccccc2nc1O` (stereo not given), for which the GI50 in [1] was > 100 µM (inactive); in [2], > 100 µM (inactive); in [3] it was > 100 µM (inactive); in assay [4], > 10 µM (inactive); in assay [5], > 100 µM (inactive); in assay [6], > 100 µM (inactive). The GI50 in [7], in [8], in [9], in assay [10], in assay [11] and in assay [12] was > 100 µM (inactive) each time. Moreover, the GI50 in [13], in assay [14], in [15], in assay [16], in assay [17] and in assay [18] was > 100 µM (inactive) in each case. The GI50 in [19] and in assay [20] was > 100 µM (inactive) in each case.
For the compound `COC(=O)C1c2c(c3ccccc3n2C(=O)OC)CCN2CCC1C(S(=O)(=O)c1ccccc1)C2=O` (stereo not given), the GI50 is > 100 µM (inactive) in assay [1]; > 100 µM (inactive) in assay [2]; 40.5 µM (inactive) in assay [3]; 30.6 µM (inactive) in assay [4]; > 100 µM (inactive) in assay [5]; > 100 µM (inactive) in [6]. Moreover, the GI50 in assay [7] is > 100 µM (inactive); in assay [8], > 100 µM (inactive); in [9] it was 70.3 µM (inactive); in [10], > 100 µM (inactive); in [11], > 100 µM (inactive); in assay [12], > 100 µM (inactive). Further, the GI50 in assay [13] was > 100 µM (inactive); in [14], > 100 µM (inactive); in assay [15] it was > 100 µM (inactive); in [16], 87.7 µM (inactive); in [17] it was > 100 µM (inactive); in assay [18], > 100 µM (inactive). In addition, the values for the GI50 in assay [19] and in [20] were 89.1 µM (inactive) and > 100 µM (inactive), respectively.
For the compound `O=C(c1c(F)c(F)c(F)c(F)c1F)n1c(O)nc2ccccc21`, the GI50 is 6.28 µM (inactive) in assay [1]; 13.6 µM (inactive) in [2]; 4.47 µM (inactive) in assay [3]; 3.03 µM (inactive) in [4]; 15.2 µM (inactive) in [5]; 16.7 µM (inactive) in assay [6]. Further, the GI50 in assay [7] was 4.91 µM (inactive); in [8], 3.83 µM (inactive); in assay [9], 17.2 µM (inactive); in [10], 14.7 µM (inactive); in assay [11], 3.51 µM (inactive); in assay [12], 12.2 µM (inactive). The GI50 in assay [13] was 10.1 µM (inactive); in assay [14], 15 µM (inactive); in [15] it was 5.69 µM (inactive); in assay [16], 2.62 µM (inactive); in assay [17] it was 19.1 µM (inactive); in [18], 3.94 µM (inactive). The figures for the GI50 in assay [19] and in assay [20] were 8.59 µM (inactive) and 4.04 µM (inactive), respectively.
On to `C[C@@H]1C[C@H]2CC[C@H](O2)[C@H](C)C(=O)O[C@@H](C)C[C@@H]2CC[C@@H](O2)[C@@H](C)C(=O)O[C@H](C)C[C@H]2CC[C@H](O2)[C@H](C)C(=O)O[C@@H](C)C[C@@H]2CC[C@@H](O2)[C@@H](C)C(=O)O1`, for which the GI50 in [1] is 0.237 µM (active); in [2], 1.58 µM (inactive); in assay [3], 0.36 µM (active); in [4] it was 0.0769 µM (active); in assay [5], 0.154 µM (active); in [6] it was 0.344 µM (active). The GI50 in assay [7] was 0.349 µM (active); in assay [8] it was 0.305 µM (active); in assay [9], 0.319 µM (active); in [10] it was 0.316 µM (active); in assay [11] it was 0.228 µM (active); in assay [12] it was 0.345 µM (active). The concentration for 50% growth inhibition (GI50) is 0.338 µM (active) in assay [13]; 1.96 µM (inactive) in assay [14]; 0.242 µM (active) in assay [15]; 0.495 µM (active) in assay [16]; 0.859 µM (active) in [17]; 0.189 µM (active) in assay [18]. In addition, the GI50 was 0.356 µM (active) in [19] and 0.326 µM (active) in assay [20].
